Source: PubChem BioAssay AID1745844 (Carcinogenic Potency Database (CPDB), 2022)
The source made the active and inactive calls. The rule behind the calls is not given here.

System: rodent lifetime carcinogenesis bioassay, tumor incidence TD50
Experiment: carcinogenic potency in animals, long-term in vivo studies, CPDB compilation (AID 1745844)
[1] = mouse, strain B6C3F1, females, in feed, site: any site (literature study), lesion: several types, types named in the paper, dosed 103 weeks, study length 105 weeks

Cc1cc(Cc2ccc(N)c(C)c2)ccc1N
TD50 (rat, strain Charles River CD (Sprague-Dawley), females, in feed, site: liver, lesion: cholangiocarcinoma, dosed 82 weeks, study length 82 weeks): 96.3 mg/kg/day | TD50 (rat, strain Charles River CD (Sprague-Dawley), females, in feed, site: liver, lesion: hepatocellular adenoma, dosed 82 weeks, study length 82 weeks): 30.5 mg/kg/day | TD50 (rat, strain Charles River CD (Sprague-Dawley), females, in feed, site: liver, lesion: hepatocellular carcinoma, dosed 82 weeks, study length 82 weeks): 7.92 mg/kg/day | TD50 (rat, strain Charles River CD (Sprague-Dawley), males, in feed, site: liver, lesion: hemangioma, dosed 68 weeks, study length 68 weeks): 35.2 mg/kg/day | TD50 (rat, strain Charles River CD (Sprague-Dawley), males, in feed, site: liver, lesion: hepatocellular adenoma, dosed 68 weeks, study length 68 weeks): 17 mg/kg/day | TD50 (rat, strain Charles River CD (Sprague-Dawley), males, in feed, site: liver, lesion: hepatocellular carcinoma, dosed 68 weeks, study length 68 weeks): 12.4 mg/kg/day | TD50 (rat, strain Charles River CD (Sprague-Dawley), males, in feed, site: mammary gland, lesion: fibroadenoma, dosed 68 weeks, study length 68 weeks): 6.91 mg/kg/day | TD50 (rat, strain Charles River CD (Sprague-Dawley), males, in feed, site: skin, lesion: fibroma, dosed 68 weeks, study length 68 weeks): 8.19 mg/kg/day

ClC(Cl)=C(Cl)C(Cl)=C(Cl)Cl
TD50 (rat, strain Sprague-Dawley Spartan, females, in feed, site: any site (literature study), lesion: several types, types named in the paper, dosed 104 weeks, study length 104 weeks): 9.84 mg/kg/day | TD50 (rat, strain Sprague-Dawley Spartan, females, in feed, site: kidney, lesion: several types, types named in the paper, dosed 104 weeks, study length 104 weeks): 94.4 mg/kg/day | carcinogen call (rat, strain Sprague-Dawley Spartan, females, in feed, site: liver, lesion: hepatocellular tumor, malignant, dosed 104 weeks, study length 104 weeks): negative (inactive) | TD50 (rat, strain Sprague-Dawley Spartan, males, in feed, site: kidney, lesion: several types, types named in the paper, dosed 95 weeks, study length 95 weeks): 50.5 mg/kg/day | carcinogen call (rat, strain Sprague-Dawley Spartan, males, in feed, site: liver, lesion: hepatocellular carcinoma, dosed 95 weeks, study length 95 weeks): negative (inactive)

C[C@@H]1O[C@@]2(CS1)CN1CCC2CC1
carcinogen call (rat, strain F344/DuCrj, females, by gavage, site: liver, lesion: one or several types, types not named, dosed 52 weeks, study length 52 weeks): negative (inactive) | carcinogen call (rat, strain F344/DuCrj, males, by gavage, site: liver, lesion: one or several types, types not named, dosed 52 weeks, study length 52 weeks): negative (inactive)

Cc1c(N)cccc1N
TD50 [1]: 75.9 mg/kg/day | TD50 (mouse, strain B6C3F1, females, in feed, site: liver, lesion: hepatocellular adenoma + hepatocellular carcinoma + neoplastic nodule, dosed 103 weeks, study length 105 weeks): 129 mg/kg/day | TD50 (mouse, strain B6C3F1, females, in feed, site: liver, lesion: hepatocellular carcinoma, dosed 103 weeks, study length 105 weeks): 181 mg/kg/day (inactive) | TD50 (mouse, strain B6C3F1, males, in feed, site: all sites, lesion: lymphoma, dosed 103 weeks, study length 104 weeks): 20.5 mg/kg/day (inactive) | carcinogen call (rat, strain Fischer 344, females, in feed, site: any site (literature study), lesion: several types, types named in the paper, dosed 103 weeks, study length 105 weeks): negative (inactive) | TD50 (rat, strain Fischer 344, females, in feed, site: liver, lesion: hepatocellular adenoma + hepatocellular carcinoma + neoplastic nodule, dosed 103 weeks, study length 105 weeks): 455 mg/kg/day | TD50 (rat, strain Fischer 344, males, in feed, site: liver, lesion: hepatocellular adenoma + hepatocellular carcinoma + neoplastic nodule, dosed 103 weeks, study length 104 weeks): 117 mg/kg/day | TD50 (rat, strain Fischer 344, males, in feed, site: liver, lesion: hepatocellular carcinoma + neoplastic nodule, dosed 103 weeks, study length 104 weeks): 117 mg/kg/day (inactive) | TD50 (rat, strain Fischer 344, males, in feed, site: pancreatic islets, lesion: islet-cell adenoma, dosed 103 weeks, study length 104 weeks): 140 mg/kg/day

Cc1csc(NNC=O)n1
TD50 (rat, strain Sprague-Dawley, females, in feed, site: any site (literature study), lesion: several types, types named in the paper, dosed 46 weeks, study length 64 weeks): 14.4 mg/kg/day | TD50 (rat, strain Sprague-Dawley, females, in feed, site: mammary gland, lesion: adenofibroma, dosed 46 weeks, study length 64 weeks): 14.4 mg/kg/day

CCN=c1cc2oc3cc(NCC)c(C)cc3c(-c3ccccc3C(=O)OCC)c-2cc1C
carcinogen call [1]: negative (inactive) | TD50 (mouse, strain B6C3F1, males, in feed, site: thyroid gland, lesion: follicular-cell adenoma + follicular-cell carcinoma, dosed 103 weeks, study length 105 weeks): 1210 mg/kg/day (inactive) | TD50 (rat, strain Fischer 344, females, in feed, site: adrenal medulla, lesion: pheochromocytoma, malignant + pheochromocytoma, benign, dosed 103 weeks, study length 105 weeks): 47.1 mg/kg/day | TD50 (rat, strain Fischer 344, males, in feed, site: liver, lesion: hepatocellular adenoma + hepatocellular carcinoma + neoplastic nodule, dosed 103 weeks, study length 105 weeks): 553 mg/kg/day | TD50 (rat, strain Fischer 344, males, in feed, site: skin, lesion: keratoacanthoma, dosed 103 weeks, study length 105 weeks): 34.5 mg/kg/day

CCCCCN(CCCCC)N=O
TD50 (rat, strain Fischer 344, females, in feed, site: liver, lesion: hepatocellular carcinoma, dosed 99 weeks, study length 104 weeks): 7.57 mg/kg/day | TD50 (rat, strain Fischer 344, males, in feed, site: liver, lesion: hepatocellular carcinoma, dosed 89 weeks, study length 104 weeks): 2.75 mg/kg/day

CCCC/C=N/N(C)C=O
TD50 (mouse, strain Swiss albino, females, by gavage, site: liver, lesion: hepatoma, benign, dosed 52 weeks, study length 144 weeks): 11.8 mg/kg/day | TD50 (mouse, strain Swiss albino, females, by gavage, site: lung, lesion: adenocarcinoma, dosed 52 weeks, study length 144 weeks): 9.29 mg/kg/day | TD50 (mouse, strain Swiss albino, females, by gavage, site: lung, lesion: adenoma, dosed 52 weeks, study length 144 weeks): 5.64 mg/kg/day | TD50 (mouse, strain Swiss albino, females, by gavage, site: lung, lesion: several types, types named in the paper, dosed 52 weeks, study length 144 weeks): 3.12 mg/kg/day | TD50 (mouse, strain Swiss albino, males, by gavage, site: liver, lesion: hepatoma, dosed 52 weeks, study length 134 weeks): 33.1 mg/kg/day | TD50 (mouse, strain Swiss albino, males, by gavage, site: lung, lesion: adenocarcinoma, dosed 52 weeks, study length 134 weeks): 11 mg/kg/day | TD50 (mouse, strain Swiss albino, males, by gavage, site: lung, lesion: adenoma, dosed 52 weeks, study length 134 weeks): 5.52 mg/kg/day | TD50 (mouse, strain Swiss albino, males, by gavage, site: lung, lesion: several types, types named in the paper, dosed 52 weeks, study length 134 weeks): 3.79 mg/kg/day | TD50 (mouse, strain Swiss albino, males, by gavage, site: preputial gland, lesion: several types, types named in the paper, dosed 52 weeks, study length 134 weeks): 16.2 mg/kg/day | TD50 (mouse, strain Swiss albino, males, by gavage, site: preputial gland, lesion: squamous-cell carcinoma, dosed 52 weeks, study length 134 weeks): 19.8 mg/kg/day | TD50 (mouse, strain Swiss albino, males, by gavage, site: preputial gland, lesion: squamous-cell papilloma, dosed 52 weeks, study length 134 weeks): 106 mg/kg/day

Cc1ccc2ncccc2c1
TD50 (rat, strain Fischer 344, females, in feed, site: liver, lesion: hyperplastic nodule, dosed 104 weeks, study length 104 weeks): 230 mg/kg/day (inactive) | TD50 (rat, strain Fischer 344, males, in feed, site: liver, lesion: hyperplastic nodule, dosed 104 weeks, study length 104 weeks): 123 mg/kg/day (inactive)

CN(N=O)C(=O)Nc1nc2ccccc2s1
TD50 (rat, strain Wistar, both sexes, by gavage, site: forestomach, lesion: papilloma, dosed 51 weeks, study length 58 weeks): 3.75 mg/kg/day | TD50 (rat, strain Wistar, both sexes, by gavage, site: forestomach, lesion: several types, types named in the paper, dosed 51 weeks, study length 58 weeks): 1.13 mg/kg/day | TD50 (rat, strain Wistar, both sexes, by gavage, site: forestomach, lesion: squamous-cell carcinoma, dosed 51 weeks, study length 58 weeks): 1.48 mg/kg/day | TD50 (rat, strain Wistar, both sexes, by gavage, site: liver, lesion: several types, types named in the paper, dosed 51 weeks, study length 58 weeks): 11.3 mg/kg/day

Clc1ccc2c(c1)Oc1ccc(Cl)cc1O2
carcinogen call (mouse, strain B6C3F1, females, in feed, site: any site (literature study), lesion: several types, types named in the paper, dosed 90 weeks, study length 91 weeks): negative (inactive) | TD50 (mouse, strain B6C3F1, males, in feed, site: all sites, lesion: hemangioma + hemangiosarcoma, dosed 90 weeks, study length 92 weeks): 2750 mg/kg/day | TD50 (mouse, strain B6C3F1, males, in feed, site: all sites, lesion: leukemia + lymphoma, dosed 90 weeks, study length 92 weeks): 1920 mg/kg/day | TD50 (mouse, strain B6C3F1, males, in feed, site: any site (literature study), lesion: several types, types named in the paper, dosed 90 weeks, study length 92 weeks): 2910 mg/kg/day | TD50 (mouse, strain B6C3F1, males, in feed, site: liver, lesion: hepatocellular adenoma + hepatocellular carcinoma + neoplastic nodule, dosed 90 weeks, study length 92 weeks): 2120 mg/kg/day | TD50 (mouse, strain B6C3F1, males, in feed, site: liver, lesion: hepatocellular adenoma + hepatocellular carcinoma, dosed 90 weeks, study length 92 weeks): 2120 mg/kg/day | carcinogen call (rat, strain Osborne-Mendel, females, in feed, site: any site (literature study), lesion: several types, types named in the paper, dosed 110 weeks, study length 110 weeks): negative (inactive) | carcinogen call (rat, strain Osborne-Mendel, males, in feed, site: any site (literature study), lesion: several types, types named in the paper, dosed 110 weeks, study length 110 weeks): negative (inactive) | TD50 (rat, strain Osborne-Mendel, males, in feed, site: liver, lesion: hepatocellular adenoma + hepatocellular carcinoma + neoplastic nodule, dosed 110 weeks, study length 110 weeks): 12900 mg/kg/day

NC(=S)Nc1cccc2ccccc12
carcinogen call (mouse, strain B6AKF1, females, oral dosing, site: any site (literature study), lesion: several types, types named in the paper, dosed 76 weeks, study length 76 weeks): negative (inactive) | carcinogen call (mouse, strain B6AKF1, females, oral dosing, site: liver, lesion: hepatoma, dosed 76 weeks, study length 76 weeks): negative (inactive) | carcinogen call (mouse, strain B6AKF1, females, oral dosing, site: lung, lesion: adenoma, dosed 76 weeks, study length 76 weeks): negative (inactive) | carcinogen call (mouse, strain B6AKF1, males, oral dosing, site: any site (literature study), lesion: several types, types named in the paper, dosed 76 weeks, study length 76 weeks): negative (inactive) | carcinogen call (mouse, strain B6AKF1, males, oral dosing, site: liver, lesion: hepatoma, dosed 76 weeks, study length 76 weeks): negative (inactive) | carcinogen call (mouse, strain B6AKF1, males, oral dosing, site: lung, lesion: adenoma, dosed 76 weeks, study length 76 weeks): negative (inactive) | TD50 (mouse, strain B6C3F1, females, oral dosing, site: any site (literature study), lesion: several types, types named in the paper, dosed 76 weeks, study length 76 weeks): 5.34 mg/kg/day (inactive) | carcinogen call (mouse, strain B6C3F1, females, oral dosing, site: liver, lesion: hepatoma, dosed 76 weeks, study length 76 weeks): negative (inactive) | carcinogen call (mouse, strain B6C3F1, females, oral dosing, site: lung, lesion: several types, types named in the paper, dosed 76 weeks, study length 76 weeks): negative (inactive) | TD50 (mouse, strain B6C3F1, males, oral dosing, site: any site (literature study), lesion: several types, types named in the paper, dosed 76 weeks, study length 76 weeks): 0.7 mg/kg/day (inactive) | carcinogen call (mouse, strain B6C3F1, males, oral dosing, site: liver, lesion: hepatoma, dosed 76 weeks, study length 76 weeks): negative (inactive) | TD50 (mouse, strain B6C3F1, males, oral dosing, site: lung, lesion: adenoma, dosed 76 weeks, study length 76 weeks): 1.27 mg/kg/day (inactive)

O=c1c(CO)c/c(=N/Nc2ccc(S(=O)(=O)O)c3ccccc23)c(=O)/c1=N/Nc1ccc(S(=O)(=O)O)c2ccccc12
TD50 (mouse, strain Tuck, females, in feed, site: all sites, lesion: lymphosarcoma, dosed 80 weeks, study length 80 weeks): 36.3 mg/kg/day (inactive) | TD50 (mouse, strain Tuck, females, in feed, site: liver, lesion: hyperplastic nodule, dosed 80 weeks, study length 80 weeks): 8440 mg/kg/day (inactive) | carcinogen call (mouse, strain Tuck, females, in feed, site: lung, lesion: adenoma, dosed 80 weeks, study length 80 weeks): negative (inactive) | TD50 (mouse, strain Tuck, males, in feed, site: liver, lesion: hyperplastic nodule, dosed 80 weeks, study length 80 weeks): 106000 mg/kg/day (inactive) | carcinogen call (mouse, strain Tuck, males, in feed, site: liver, lesion: liver-cell adenoma, dosed 80 weeks, study length 80 weeks): negative (inactive) | carcinogen call (mouse, strain Tuck, males, in feed, site: lung, lesion: adenoma, dosed 80 weeks, study length 80 weeks): negative (inactive)
